This is an account of results in PubChem BioAssay (NCI).

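96-well plates; 48 h exposure; 5 concentrations. Endpoints by linear interpolation between flanking doses. Not reached: highest tested concentration assigned. GI50 = concentration required for 50% inhibition of growth. TGI is the concentration that stops growth completely.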

Test systems include IGROV1 ovarian; MDA-MB-231 breast; MOLT-4 leukemia; NCI-H460 lung; SK-MEL-28 melanoma; SNB-19 CNS; SNB-75 CNS; UO-31 renal; 786-0 renal; MALME-3M melanoma.
Holding throughout (experiment): growth of human tumour cells (NCI), 48 h

For the compound `O=C1CCC[C@H]2O[C@@H](COC(=O)c3ccccc3)C[C@H]2O1`, the TGI in the assay on IGROV1 ovarian, in the assay on MDA-MB-231 breast, in the assay on MOLT-4 leukemia, with NCI-H460 lung, in the assay on SK-MEL-28 melanoma and with SNB-19 CNS was greater than 100 µM throughout. Moreover, the TGI in the assay with SNB-75 CNS and in the assay on UO-31 renal was greater than 100 µM each time.
On to `O=C1CCCC/C1=C\c1ccc([N+](=O)[O-])cc1`, for which the TGI with 786-0 renal was 28.1 µM; in the assay with IGROV1 ovarian, 32.1 µM; with MDA-MB-231 breast, 52.6 µM; with MOLT-4 leukemia, 30.4 µM; in the assay on NCI-H460 lung, greater than 100 µM; with SK-MEL-28 melanoma, 23.5 µM. Moreover, the TGI in the assay with SNB-19 CNS is 32.5 µM; in the assay on SNB-75 CNS, 46 µM; in the assay on UO-31 renal, 36.3 µM.
Regarding `COc1ccc2cc(CNCCCCCCCCNCc3ccc4cc(OC)ccc4c3)ccc2c1`, the TGI in the assay with 786-0 renal is greater than 100 µM; in the assay on IGROV1 ovarian, greater than 100 µM; in the assay with MDA-MB-231 breast, greater than 100 µM; with MOLT-4 leukemia, 7.5 µM; in the assay with NCI-H460 lung it was 33.9 µM; with SK-MEL-28 melanoma, 9.8 µM. Also, the TGI in the assay with SNB-19 CNS is 7.83 µM; with SNB-75 CNS, 11.1 µM.
As for `O=C1/C(=C\c2ccc(Br)cc2)CCCc2ccccc21`, the TGI with 786-0 renal was 27.8 µM; with IGROV1 ovarian it was 34.4 µM; with MDA-MB-231 breast, 42 µM; in the assay with MOLT-4 leukemia, 58.5 µM; with NCI-H460 lung, 34 µM; in the assay with SK-MEL-28 melanoma, 40.9 µM. Moreover, the TGI with SNB-19 CNS is 32.6 µM; in the assay on SNB-75 CNS, 52.7 µM; in the assay with UO-31 renal it was 27.8 µM.
For `O=C(c1cccs1)c1nccc2c1cnc1ccccc12`, the TGI in the assay on 786-0 renal, in the assay with MALME-3M melanoma, in the assay with MDA-MB-231 breast, with MOLT-4 leukemia, with NCI-H460 lung and with SK-MEL-28 melanoma was greater than 100 µM throughout. The TGI in the assay on SNB-19 CNS, in the assay on SNB-75 CNS and in the assay on UO-31 renal was greater than 100 µM in each case.
For the compound `CC1(C)CC(=O)c2c(nc3c(ccc4ccccc43)c2-c2ccc(NC(=O)CCC(=O)Nc3ccc(-c4c5c(nc6c4ccc4ccccc46)CC(C)(C)CC5=O)cc3)cc2)C1`, the TGI with 786-0 renal, in the assay with IGROV1 ovarian, in the assay on MDA-MB-231 breast, in the assay with MOLT-4 leukemia, in the assay with NCI-H460 lung and in the assay on SK-MEL-28 melanoma was greater than 100 µM each time. Besides, the TGI with SNB-19 CNS, in the assay with SNB-75 CNS and in the assay on UO-31 renal was greater than 100 µM each time.
Consider `Cc1ccc(Cl)cc1N=NC(=O)NNc1cc(Cl)ccc1C`, for which the TGI in the assay with IGROV1 ovarian was 38.3 µM; in the assay on MALME-3M melanoma it was 64.6 µM; in the assay on MDA-MB-231 breast it was 40.3 µM; in the assay with MOLT-4 leukemia, greater than 100 µM; in the assay on NCI-H460 lung, 39 µM; with SK-MEL-28 melanoma, 38.9 µM. The figures for the TGI with SNB-19 CNS, in the assay with SNB-75 CNS and in the assay on UO-31 renal were 43.2 µM, 36.3 µM and 35.7 µM, respectively.
For `C/C(=N\NC(=S)N1CCC(N2CCCCC2)CC1)c1ccccn1`, the TGI was 12.3 µM in the assay with IGROV1 ovarian; greater than 100 µM with MALME-3M melanoma; 3.57 µM in the assay with MDA-MB-231 breast; greater than 21 µM with MOLT-4 leukemia; 7.23 µM with NCI-H460 lung; 13.7 µM in the assay with SK-MEL-28 melanoma. Moreover, the TGI came out at 11.3 µM in the assay with SNB-19 CNS, 11.2 µM in the assay with SNB-75 CNS and 3.3 µM in the assay on UO-31 renal.
Regarding `COc1cc(/C=N/N=C(\N)NO)cc(OC)c1OC`, the TGI was 39.2 µM with 786-0 renal; greater than 100 µM in the assay on IGROV1 ovarian; 82.7 µM with MALME-3M melanoma; greater than 100 µM in the assay with MDA-MB-231 breast; greater than 100 µM in the assay with MOLT-4 leukemia; greater than 100 µM with NCI-H460 lung. Besides, the TGI in the assay with SK-MEL-28 melanoma, in the assay on SNB-19 CNS and with UO-31 renal was greater than 100 µM each time.
On to `COc1cccc2c1C(=O)c1c(O)c3c(c(O)c1C2=O)C[C@@](O)(C(=O)COC(=O)c1ccccc1)C[C@@H]3OC1CC(N)C(O)C(C)O1` (stereo not given in full), for which the GI50 was 0.136 µM in the assay on MALME-3M melanoma; 0.376 µM in the assay with MDA-MB-231 breast; 0.0302 µM with MOLT-4 leukemia; 0.0167 µM with NCI-H460 lung; 0.534 µM with SK-MEL-28 melanoma; 0.0762 µM in the assay with SNB-75 CNS. Further, the GI50 in the assay on UO-31 renal is 0.497 µM. In addition, the TGI came to 0.652 µM in the assay with MALME-3M melanoma; 1.79 µM in the assay on MDA-MB-231 breast; 0.275 µM in the assay on MOLT-4 leukemia; 0.182 µM in the assay with NCI-H460 lung; 1.95 µM in the assay with SK-MEL-28 melanoma; 0.738 µM with SNB-75 CNS. In addition, in the assay with UO-31 renal, the TGI stood at 2.06 µM.
As for `O=c1[nH]nc(-c2ccccc2)n1/N=C/c1ccccc1O`, the TGI in the assay with 786-0 renal, in the assay on IGROV1 ovarian, in the assay with MALME-3M melanoma, in the assay with MDA-MB-231 breast, with MOLT-4 leukemia and in the assay on NCI-H460 lung was greater than 100 µM throughout. Moreover, the TGI in the assay with SNB-19 CNS and in the assay on UO-31 renal was greater than 100 µM throughout.
For the compound `Cc1ccc(S(=O)(=O)CNC(=O)C(O)(O)C(F)(F)F)cc1`, the TGI in the assay on 786-0 renal, with IGROV1 ovarian, in the assay on MALME-3M melanoma, in the assay on MDA-MB-231 breast, in the assay on MOLT-4 leukemia and in the assay with NCI-H460 lung was greater than 100 µM throughout. In addition, the TGI in the assay with SK-MEL-28 melanoma, with SNB-19 CNS and in the assay with UO-31 renal was greater than 100 µM in each case.
